Here are results for six molecules from patent publication US6040309A, “Benzothiophene derivatives useful in therapy” (Pfizer, Inc., priority 1997, dated 2000).

Bridges are numbered along the chain shown (N, C = ends). Where no end group is shown, it is not given here.

One experiment deals with rabbit ETA receptor. As to conditions: cited from earlier work.
In another experiment the target is human ETA receptor. The note with it: cited from earlier work.
The target of a further experiment is T1, ETA receptor (Rattus norvegicus, UniProt P26684).
T1 construct: Rat aortae are cleaned of connective tissue and fat and cut into helical strips; from tissue; host or cells: rat aorta, helical strips, endothelium removed
T1 sequence (P26684 21-426): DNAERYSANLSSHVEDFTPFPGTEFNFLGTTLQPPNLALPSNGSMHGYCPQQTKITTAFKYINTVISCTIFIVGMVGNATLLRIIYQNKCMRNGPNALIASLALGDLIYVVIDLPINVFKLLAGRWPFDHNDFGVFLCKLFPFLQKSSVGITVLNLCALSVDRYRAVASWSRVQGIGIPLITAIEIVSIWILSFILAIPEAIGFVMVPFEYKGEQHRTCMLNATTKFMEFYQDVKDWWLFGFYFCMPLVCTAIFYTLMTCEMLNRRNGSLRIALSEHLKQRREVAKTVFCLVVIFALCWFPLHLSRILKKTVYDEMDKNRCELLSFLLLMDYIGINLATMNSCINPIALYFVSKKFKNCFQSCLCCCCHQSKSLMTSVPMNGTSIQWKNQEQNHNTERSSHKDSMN
Put plainly: In Vitro Vascular Smooth Muscle Activity, Rat Aorta (ET-1 contraction; Test B). Type of experiment: cell-based. As to conditions: read-out: pA2 (converted). The source says:
B. In Vitro Vascular Smooth Muscle Activity
Rat aortae are cleaned of connective tissue and fat and cut into helical strips approx 4 mm in width. The endothelium is removed by dragging the luminal surface of the tissue gently across filter paper moistened with Krebs solution of composition (mM) NaCl 130, KCl 5.6, NaHCO3 25, Glucose 11.1, NaH2 PO4 0.6, CaCl2 2.16, MgCl2 0.5, gassed with 95% O2 /5% CO2. The strips are mounted in isolated organ baths in Krebs solution under a resting tension of 1 gram. Organ bath solutions are maintained at 37° C. and continuously aerated with 95% O2 /5% CO2. […] After equilibration in the organ bath for 1 hour, tissues are contracted by the addition of KCl to a final concentration of 60 mM. The KCl is removed by replacing the Krebs solution, with two further washes with Krebs solution. To determine the potency of an ETA receptor antagonist, two tissues are cumulatively dosed with ET-1 (0.1 nM-1 μM); other tissues are dosed with ET-1 (0.1 nM-1 μM) in duplicate, beginning 30 minutes after the inclusion in the organ bath medium of the test compound. Sufficient tissues are used per experiment to generate dose-response curves to ET-1 in the absence and the presence of at least 3 concentrations of antagonist. Data are expressed as the mean±s.e.m. Dissociation constants (kb) of competitive antagonists are calculated by the method of Arunlakshana and Schild.

The subject of another experiment is neointimal formation. The note with it: cited from earlier work.

One may read the IC50 as the concentration that gives 50% inhibition. As to `COc1cccc(Sc2c(C(=O)O)sc3ccccc23)c1` [3-[(3-methoxyphenyl)sulfanyl]benzo[b]thiophene-2-carboxylic acid], the IC50 on rabbit ETA receptor is 5.9 µM.

Regarding `CC(C)Oc1c(C(=O)O)sc2ccc(OCc3ccccc3)cc12` [5-benzyloxy-3-isopropoxybenzo[b]thiophene-2-carboxylic acid], the results for the concentration for half-maximal inhibition (IC50) at rabbit ETA receptor and on human ETA receptor were 6 µM and 8.8 µM, respectively.

Take `O=C(O)c1sc2cc(OCc3cccnc3)ccc2c1Sc1ccccc1O` [Example 56]: the Kb at ETA receptor is 0.0148 µM.

With `O=C(O)c1sc2cc(Cn3ccnc3)ccc2c1Sc1ccccc1O` [Example 71], the Kb at ETA receptor is 0.229 µM.

As to `CCCOc1ccc2c(c1)[C@@H](c1ccc(OC)cc1OCC(=O)O)[C@H](C(=O)O)[C@H]2c1ccc2c(c1)OCO2` [SB-209670], in the experiment with neointimal formation (relative to control animals), the “reduction in neointimal formation” value was 50%.

With “ET-1: isoform of endothelin, 21-amino acid peptide, potent vasoconstrictor (CSCSSLMDKECVYFCHLDIIW; disulfide 1-15, 3-11; ends not checked; UniProt P05305 53-73, looked up)”, the “effect on neointimal formation” value in the experiment with neointimal formation (in rats after balloon angioplasty) is listed as “potentiate neointimal formation”.
